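Method: 48-hour compound exposure of cells in 96-well plates, five concentrations, linear interpolation of endpoints. At the TGI there is no net growth.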
Columns and labels:
Test in all cases: DTP human tumour cell line panel, 48 h
KM12 colon = test system: KM12 colon
DU-145 prostate = test system: DU-145 prostate
MCF7 breast = test system: MCF7 breast
LOX IMVI melanoma = test system: LOX IMVI melanoma
CCRF-CEM leukemia = test system: CCRF-CEM leukemia
HCT-116 colon = test system: HCT-116 colon
A549 NSCLC = test system: A549 NSCLC
OVCAR-5 ovarian = test system: OVCAR-5 ovarian
SK-MEL-5 melanoma = test system: SK-MEL-5 melanoma
COLO 205 colon = test system: COLO 205 colon
MALME-3M melanoma = test system: MALME-3M melanoma
HOP-92 NSCLC = test system: HOP-92 NSCLC
NCI-H23 lung = test system: NCI-H23 lung
OVCAR-8 ovarian = test system: OVCAR-8 ovarian
HCC-2998 colon = test system: HCC-2998 colon
SF-268 CNS = test system: SF-268 CNS
UACC-257 melanoma = test system: UACC-257 melanoma
NCI-H226 lung = test system: NCI-H226 lung
HOP-62 NSCLC = test system: HOP-62 NSCLC
TK-10 renal = test system: TK-10 renal
NCI-H460 lung = test system: NCI-H460 lung
SF-295 CNS = test system: SF-295 CNS
OVCAR-4 ovarian = test system: OVCAR-4 ovarian
MDA-MB-435 = test system: MDA-MB-435
SK-MEL-28 melanoma = test system: SK-MEL-28 melanoma
EKVX NSCLC = test system: EKVX NSCLC
SNB-19 CNS = test system: SNB-19 CNS
RPMI-8226 leukemia = test system: RPMI-8226 leukemia
CAKI-1 renal = test system: CAKI-1 renal
UACC-62 melanoma = test system: UACC-62 melanoma
A498 renal = test system: A498 renal
MDA-N = test system: MDA-N
MOLT-4 leukemia = test system: MOLT-4 leukemia
RXF 393 renal = test system: RXF 393 renal
K-562 leukemia = test system: K-562 leukemia
ACHN renal = test system: ACHN renal
OVCAR-3 ovarian = test system: OVCAR-3 ovarian
SF-539 CNS = test system: SF-539 CNS
SNB-75 CNS = test system: SNB-75 CNS
MDA-MB-231 breast = test system: MDA-MB-231 breast
HS 578T breast = test system: HS 578T breast
SW-620 colon = test system: SW-620 colon
HT29 colon = test system: HT29 colon
T-47D breast = test system: T-47D breast
SK-OV-3 ovarian = test system: SK-OV-3 ovarian
SN12C renal = test system: SN12C renal
HL-60(TB) leukemia = test system: HL-60(TB) leukemia
IGROV1 ovarian = test system: IGROV1 ovarian
PC-3 prostate = test system: PC-3 prostate
786-0 renal = test system: 786-0 renal
HCT-15 colon = test system: HCT-15 colon
U251 CNS = test system: U251 CNS
M14 melanoma = test system: M14 melanoma
NCI/ADR-RES ovarian = test system: NCI/ADR-RES ovarian
SK-MEL-2 melanoma = test system: SK-MEL-2 melanoma
NCI-H522 lung = test system: NCI-H522 lung
UO-31 renal = test system: UO-31 renal
SR leukemia = test system: SR leukemia

Question: With `CCCCCCCCCCCCCCCCCC(=O)OCC(COC1OC(COP(=O)(O)O)C(O)C(O)C1O)OC(=O)CCCCCCCCCCCCCCCCC` (centres undefined) as the molecule, how does the TGI (KM12 colon) read?
Answer: 13 µM

Question: What about the TGI (DU-145 prostate) of the same molecule?
Answer: 16.8 µM

Question: And the TGI (MCF7 breast)?
Answer: 17.1 µM

Question: What about the TGI (LOX IMVI melanoma) of the same molecule?
Answer: 17.2 µM

Question: What about the TGI (CCRF-CEM leukemia) of the same molecule?
Answer: 14.4 µM

Question: And the TGI (HCT-116 colon)?
Answer: 16.2 µM

Question: And the TGI (A549 NSCLC)?
Answer: 16 µM

Question: And the TGI (OVCAR-5 ovarian)?
Answer: 11.4 µM

Question: What about the TGI (SK-MEL-5 melanoma) of the same molecule?
Answer: 16.6 µM

Question: What about the TGI (COLO 205 colon) of the same molecule?
Answer: 18.5 µM

Question: And the TGI (MALME-3M melanoma)?
Answer: 14.2 µM

Question: What about the TGI (HOP-92 NSCLC) of the same molecule?
Answer: 10.5 µM

Question: What about the TGI (NCI-H23 lung) of the same molecule?
Answer: 15 µM

Question: And the TGI (OVCAR-8 ovarian)?
Answer: 17.8 µM

Question: What about the TGI (HCC-2998 colon) of the same molecule?
Answer: 15.7 µM

Question: What about the TGI (SF-268 CNS) of the same molecule?
Answer: 17 µM

Question: What about the TGI (UACC-257 melanoma) of the same molecule?
Answer: 16.6 µM

Question: And the TGI (NCI-H226 lung)?
Answer: 13.3 µM

Question: And the TGI (HOP-62 NSCLC)?
Answer: 15.1 µM

Question: What about the TGI (TK-10 renal) of the same molecule?
Answer: 17.6 µM

Question: What about the TGI (NCI-H460 lung) of the same molecule?
Answer: 23.4 µM

Question: And the TGI (SF-295 CNS)?
Answer: 10.6 µM

Question: And the TGI (OVCAR-4 ovarian)?
Answer: 14.5 µM

Question: And the TGI (MDA-MB-435)?
Answer: 17.1 µM

Question: And the TGI (SK-MEL-28 melanoma)?
Answer: 18 µM

Question: What about the TGI (EKVX NSCLC) of the same molecule?
Answer: 16.4 µM

Question: What about the TGI (SNB-19 CNS) of the same molecule?
Answer: 14.8 µM

Question: And the TGI (RPMI-8226 leukemia)?
Answer: 23.1 µM

Question: What about the TGI (CAKI-1 renal) of the same molecule?
Answer: 16.9 µM

Question: What about the TGI (UACC-62 melanoma) of the same molecule?
Answer: 16.3 µM

Question: And the TGI (A498 renal)?
Answer: 12.5 µM

Question: And the TGI (MDA-N)?
Answer: 20.1 µM

Question: And the TGI (MOLT-4 leukemia)?
Answer: 17.3 µM

Question: And the TGI (RXF 393 renal)?
Answer: 16.8 µM

Question: And the TGI (K-562 leukemia)?
Answer: 18.7 µM

Question: And the TGI (ACHN renal)?
Answer: 12.7 µM

Question: What about the TGI (OVCAR-3 ovarian) of the same molecule?
Answer: 16 µM

Question: What about the TGI (SF-539 CNS) of the same molecule?
Answer: 18.1 µM

Question: What about the TGI (SNB-75 CNS) of the same molecule?
Answer: 11.5 µM

Question: What about the TGI (MDA-MB-231 breast) of the same molecule?
Answer: 9.24 µM

Question: What about the TGI (HS 578T breast) of the same molecule?
Answer: 17.4 µM

Question: What about the TGI (SW-620 colon) of the same molecule?
Answer: 17.9 µM

Question: What about the TGI (HT29 colon) of the same molecule?
Answer: 11.7 µM

Question: What about the TGI (T-47D breast) of the same molecule?
Answer: 28.9 µM

Question: What about the TGI (SK-OV-3 ovarian) of the same molecule?
Answer: 15.4 µM

Question: And the TGI (SN12C renal)?
Answer: 14.1 µM

Question: And the TGI (HL-60(TB) leukemia)?
Answer: 21.1 µM

Question: What about the TGI (IGROV1 ovarian) of the same molecule?
Answer: 10.5 µM

Question: And the TGI (PC-3 prostate)?
Answer: 14.3 µM

Question: What about the TGI (786-0 renal) of the same molecule?
Answer: 14.9 µM

Question: What about the TGI (HCT-15 colon) of the same molecule?
Answer: 14.4 µM

Question: And the TGI (U251 CNS)?
Answer: 14.7 µM

Question: And the TGI (M14 melanoma)?
Answer: 17.3 µM

Question: And the TGI (NCI/ADR-RES ovarian)?
Answer: 18.2 µM

Question: With `COc1ccc(N2C(=O)C3c4[nH]c5c(C)cccc5c4C4CCC(C(C)(C)C)CC4C3C2=O)cc1` (centres undefined) as the molecule, how does the TGI (KM12 colon) read?
Answer: > 10 µM

Question: What about the TGI (DU-145 prostate) of the same molecule?
Answer: > 10 µM

Question: And the TGI (MCF7 breast)?
Answer: > 10 µM

Question: What about the TGI (LOX IMVI melanoma) of the same molecule?
Answer: 4.17 µM

Question: What about the TGI (SK-MEL-2 melanoma) of the same molecule?
Answer: > 10 µM

Question: What about the TGI (CCRF-CEM leukemia) of the same molecule?
Answer: > 10 µM

Question: And the TGI (HCT-116 colon)?
Answer: > 10 µM

Question: And the TGI (NCI-H522 lung)?
Answer: > 10 µM

Question: And the TGI (A549 NSCLC)?
Answer: > 10 µM

Question: What about the TGI (OVCAR-5 ovarian) of the same molecule?
Answer: > 10 µM

Question: What about the TGI (SK-MEL-5 melanoma) of the same molecule?
Answer: > 10 µM

Question: What about the TGI (COLO 205 colon) of the same molecule?
Answer: > 10 µM

Question: What about the TGI (MALME-3M melanoma) of the same molecule?
Answer: > 10 µM

Question: And the TGI (NCI-H23 lung)?
Answer: > 10 µM

Question: And the TGI (OVCAR-8 ovarian)?
Answer: > 10 µM

Question: What about the TGI (HCC-2998 colon) of the same molecule?
Answer: 7.61 µM

Question: What about the TGI (SF-268 CNS) of the same molecule?
Answer: > 10 µM

Question: What about the TGI (UO-31 renal) of the same molecule?
Answer: > 10 µM

Question: What about the TGI (NCI-H226 lung) of the same molecule?
Answer: > 10 µM

Question: What about the TGI (HOP-62 NSCLC) of the same molecule?
Answer: > 10 µM

Question: And the TGI (TK-10 renal)?
Answer: > 10 µM

Question: And the TGI (NCI-H460 lung)?
Answer: 6.63 µM

Question: What about the TGI (SF-295 CNS) of the same molecule?
Answer: > 10 µM

Question: And the TGI (OVCAR-4 ovarian)?
Answer: > 10 µM

Question: What about the TGI (MDA-MB-435) of the same molecule?
Answer: > 10 µM

Question: And the TGI (SK-MEL-28 melanoma)?
Answer: > 10 µM

Question: What about the TGI (EKVX NSCLC) of the same molecule?
Answer: > 10 µM

Question: And the TGI (SNB-19 CNS)?
Answer: > 10 µM

Question: What about the TGI (RPMI-8226 leukemia) of the same molecule?
Answer: > 10 µM

Question: And the TGI (CAKI-1 renal)?
Answer: > 10 µM

Question: And the TGI (SR leukemia)?
Answer: > 10 µM

Question: And the TGI (UACC-62 melanoma)?
Answer: > 10 µM

Question: What about the TGI (A498 renal) of the same molecule?
Answer: > 10 µM

Question: And the TGI (MDA-N)?
Answer: > 10 µM

Question: What about the TGI (MOLT-4 leukemia) of the same molecule?
Answer: > 10 µM

Question: And the TGI (RXF 393 renal)?
Answer: > 10 µM

Question: And the TGI (K-562 leukemia)?
Answer: > 10 µM

Question: What about the TGI (ACHN renal) of the same molecule?
Answer: > 10 µM

Question: What about the TGI (OVCAR-3 ovarian) of the same molecule?
Answer: > 10 µM

Question: And the TGI (SF-539 CNS)?
Answer: > 10 µM

Question: And the TGI (SNB-75 CNS)?
Answer: > 10 µM

Question: What about the TGI (MDA-MB-231 breast) of the same molecule?
Answer: > 10 µM

Question: What about the TGI (HS 578T breast) of the same molecule?
Answer: > 10 µM

Question: And the TGI (SW-620 colon)?
Answer: > 10 µM

Question: What about the TGI (HT29 colon) of the same molecule?
Answer: 5.86 µM

Question: What about the TGI (T-47D breast) of the same molecule?
Answer: > 10 µM

Question: And the TGI (SK-OV-3 ovarian)?
Answer: > 10 µM

Question: And the TGI (SN12C renal)?
Answer: > 10 µM

Question: What about the TGI (HL-60(TB) leukemia) of the same molecule?
Answer: > 10 µM

Question: And the TGI (IGROV1 ovarian)?
Answer: > 10 µM

Question: What about the TGI (PC-3 prostate) of the same molecule?
Answer: > 10 µM

Question: And the TGI (HCT-15 colon)?
Answer: > 10 µM

Question: And the TGI (U251 CNS)?
Answer: > 10 µM

Question: And the TGI (M14 melanoma)?
Answer: > 10 µM

Question: What about the TGI (NCI/ADR-RES ovarian) of the same molecule?
Answer: > 10 µM
